# Key:
# anti-EUGs mAb [1] = assay: broad-spectrum indirect competitive ELISA; format: binding, mice; conditions: for CR (cross-reactivity): CR=[(IC50 eugenol)/(IC50 analog)]×100%; for LOD (IC10) / linear range (IC20–IC80): in buffer solution
# 1B5 mAb = conditions: previously reported mAb; ref [2] Lei et al., 2023; cited from earlier work
# anti-EUGs mAb [2] = assay: antibody affinity by saturation concentration method; format: binding, mice; conditions: mAb to eugenol
# [3] = ref Li et al., 2015; cited from earlier work
# [4] = National Toxicology Program; ref Li et al., 2015; cited from earlier work
Compound,CR (cross-reactivity) (anti-EUGs mAb [1]),LOD (IC10) (anti-EUGs mAb [1]),linear range (IC20–IC80) (anti-EUGs mAb [1]),other results
CCc1ccc(O)c(OC)c1 [4-Ethyl-2-methoxyphenol],8.7%,,,
CCOC(=O)c1ccc(N)cc1 [Benzocaine],<0.4%,,,
Oc1ccccc1O [Catechol],<0.4%,,,
C=CCc1ccc(O)c(OC)c1 [Eugenol],100%,3.16 ng/mL,7.92 to 184.05 ng/mL,IC50 of mAb 1B5 (1B5 mAb): 9.23 ng/mL; dissociation constant Ka (anti-EUGs mAb [2]; Ka is the inverse of Kd): 1.3e+09 L/mol; Kd (anti-EUGs mAb [2]; read-out: affinity constant Kd): 0.77 nM; IARC carcinogen category [3]: Group 3 carcinogen
COc1ccccc1O [Guaiacol],<0.4%,,,
C=CCc1ccc(OC)c(OC)c1 [Methyl eugenol],4773.8%,0.06 ng/mL,0.15 to 4.30 ng/mL,liver cancer risk [4]: potential to elevate the risk of liver cancer
C/C=C/c1ccc(OC)c(OC)c1 [Methyl isoeugenol],8679.5%,0.02 ng/mL,0.06 to 3.04 ng/mL,
CC(C)c1cccc(C(C)C)c1O [Propofol],<0.4%,,,
CCCCNc1ccc(C(=O)OCCN(C)C)cc1 [Tetracaine],<0.4%,,,
CCOC(=O)c1cccc(N)c1.CS(=O)(=O)O [Tricaine methanesulfonate],<0.4%,,,
COc1cc(C=O)ccc1O [Vanillin],<0.4%,,,
COc1ccc(C=O)cc1OC [Veratraldehyde],<0.4%,,,
Isoeugenol,25460.0%,0.00935 ng/mL,0.026 to 0.865 ng/mL,

# — PMC10912603 (Food Chemistry: X, 2024)
